# From US10202361B2, “Pyridazinones as herbicides” (E I DU PONT DE NEMOURS AND COMPANY, priority 2014, dated 2019)
# Like-named read-outs stand apart in the source and are kept apart here.
# Legend:
# Assay type in all cases: in vivo
# [1] = system: goosegrass (Eleusine indica); experiment: Test E pre-/postemergence greenhouse herbicide test; details: Preemergence, scale 0 to 100
# [2] = system: ragweed (common ragweed, Ambrosia elatior); experiment: Test C pre-/postemergence greenhouse herbicide test; details: Ambrosia artemisiifolia, Ragweed, read-out: Plant response rating; for pest or weed control at 31 g/ha: 31 g ai/ha; for pest or weed control at 62 g/ha: 62 g ai/ha; for pest or weed control at 125 g/ha: 125 g ai/ha; for pest or weed control at 250 g/ha: 250 g ai/ha
# Procedure, shortened: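 Plant response is scored on a 0–100 scale, where 100 means complete control, by visual comparison with controls 13 to 15 d after greenhouse treatment. Applications are made pre- and postemergence using a surfactant-containing, non-phytotoxic solvent formulation.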
# [3] = system: velvetleaf (Abutilon theophrasti); experiment: Test A pre-/postemergence greenhouse herbicide test; details: Abutilon theophrasti, 240 h, 0 to 100 scale (0 no effect, 100 complete control), approx. 10 d, read-out: Plant response rating, Velvetleaf; for pest or weed control at 125 g/ha: 125 g ai/ha; for pest or weed control at 500 g/ha: 500 g ai/ha
# Procedure, shortened: (§1)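 Greenhouse pre- and postemergence treatment in loam/sand soil, test chemicals in non-phytotoxic solvent with surfactant; postemergence plants 2–10 cm, one- to two-leaf stage. Visual injury rated after approximately 10 d versus untreated controls, 0 (no effect) to 100 (complete control).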
# [4] = system: barnyardgrass (Echinochloa crus-galli); experiment: as above; details: Echinochloa crus-galli, 240 h, 0 to 100 scale (0 no effect, 100 complete control), approx. 10 d, read-out: Plant response rating, Barnyardgrass; for pest or weed control at 125 g/ha: 125 g ai/ha; for pest or weed control at 500 g/ha: 500 g ai/ha
# Procedure, shortened: as §1
# corn (Zea mays) = experiment: as above; details: Zea mays, 240 h, 0 to 100 scale (0 no effect, 100 complete control), approx. 10 d; for Corn plant response rating (crop injury, 0 = no effect, 100 = complete kill) at 125 g/ha: 125 g ai/ha; for Corn plant response rating (crop injury, 0 = no effect, 100 = complete kill) at 500 g/ha: 500 g ai/ha
# Procedure, shortened: as §1
# [5] = system: morningglory (Ipomoea spp.); experiment: as above; details: Ipomoea, 240 h, 0 to 100 scale (0 no effect, 100 complete control), approx. 10 d, read-out: Plant response rating, Morningglory; for pest or weed control at 125 g/ha: 125 g ai/ha; for pest or weed control at 500 g/ha: 500 g ai/ha
# Procedure, shortened: as §1
# [6] = system: crabgrass, Large (large crabgrass, Digitaria sanguinalis); experiment: as above; details: Digitaria sanguinalis, 240 h, 0 to 100 scale (0 no effect, 100 complete control), approx. 10 d, read-out: Plant response rating, Crabgrass, Large; for pest or weed control at 125 g/ha: 125 g ai/ha; for pest or weed control at 500 g/ha: 500 g ai/ha
# Procedure, shortened: as §1
# [7] = system: pigweed (Amaranthus retroflexus); experiment: as above; details: Amaranthus retroflexus, 240 h, 0 to 100 scale (0 no effect, 100 complete control), approx. 10 d, read-out: Plant response rating, Pigweed; for pest or weed control at 125 g/ha: 125 g ai/ha; for pest or weed control at 500 g/ha: 500 g ai/ha
# Procedure, shortened: as §1
# [8] = system: wheat (Triticum aestivum); experiment: as above; details: Triticum aestivum, 240 h, 0 to 100 scale (0 no effect, 100 complete control), approx. 10 d, read-out: Plant response rating, Wheat; for plant injury at 125 g/ha: 125 g ai/ha; for plant injury at 500 g/ha: 500 g ai/ha
# Procedure, shortened: as §1
# [9] = system: foxtail, giant (giant foxtail, Setaria faberii); experiment: as above; details: Setaria faberi, 240 h, 0 to 100 scale (0 no effect, 100 complete control), approx. 10 d, read-out: Plant response rating, Foxtail, Giant; for pest or weed control at 125 g/ha: 125 g ai/ha; for pest or weed control at 500 g/ha: 500 g ai/ha
# Procedure, shortened: as §1
structure (smiles),measurement,setting,value
"COc1cc(=O)n(-c2ccc(F)cc2)nc1Cc1ccnc(C(F)(F)F)c1 [Compound 17, 2-(4-fluorophenyl)-5-methoxy-6-[[2-(trifluoromethyl)-4-pyridinyl]methyl]-3 (2H)-pyridazinone]",Plant response rating: Goosegrass,[1]; 16 g ai/ha,0
same,Plant response rating: Goosegrass,[1]; 31 g ai/ha,20
same,Plant response rating: Goosegrass,[1]; 62 g ai/ha,60
same,Plant response rating: Goosegrass,[1]; 125 g ai/ha,95
same,Plant response rating: Goosegrass,[1]; 250 g ai/ha,98
same,pest or weed control at 31 g/ha,"[2]; post-emergence, Postemergence",40%
same,pest or weed control at 62 g/ha,"[2]; post-emergence, Postemergence",70%
same,pest or weed control at 125 g/ha,"[2]; post-emergence, Postemergence",80%
same,pest or weed control at 250 g/ha,"[2]; post-emergence, Postemergence",85%
same,pest or weed control at 31 g/ha,"[2]; pre-emergence, Preemergence",35%
same,pest or weed control at 62 g/ha,"[2]; pre-emergence, Preemergence",65%
same,pest or weed control at 125 g/ha,"[2]; pre-emergence, Preemergence",80%
same,pest or weed control at 250 g/ha,"[2]; pre-emergence, Preemergence",98%
same,pest or weed control at 125 g/ha,"[3]; post-emergence, Postemergence",100%
same,pest or weed control at 500 g/ha,"[3]; post-emergence, Postemergence",100%
same,pest or weed control at 125 g/ha,"[3]; pre-emergence, Preemergence",100%
same,pest or weed control at 500 g/ha,"[3]; pre-emergence, Preemergence",100%
same,pest or weed control at 125 g/ha,"[4]; post-emergence, Postemergence",80%
same,pest or weed control at 500 g/ha,"[4]; post-emergence, Postemergence",90%
same,pest or weed control at 125 g/ha,"[4]; pre-emergence, Preemergence",80%
same,pest or weed control at 500 g/ha,"[4]; pre-emergence, Preemergence",100%
same,"Corn plant response rating (crop injury, 0 = no effect, 100 = complete kill) at 125 g/ha","corn (Zea mays); post-emergence, Postemergence",60%
same,"Corn plant response rating (crop injury, 0 = no effect, 100 = complete kill) at 500 g/ha","corn (Zea mays); post-emergence, Postemergence",80%
same,"Corn plant response rating (crop injury, 0 = no effect, 100 = complete kill) at 125 g/ha","corn (Zea mays); pre-emergence, Preemergence",40%
same,"Corn plant response rating (crop injury, 0 = no effect, 100 = complete kill) at 500 g/ha","corn (Zea mays); pre-emergence, Preemergence",50%
same,pest or weed control at 125 g/ha,"[5]; post-emergence, Postemergence",100%
same,pest or weed control at 500 g/ha,"[5]; post-emergence, Postemergence",100%
same,pest or weed control at 125 g/ha,"[6]; post-emergence, Postemergence",90%
same,pest or weed control at 500 g/ha,"[6]; post-emergence, Postemergence",90%
same,pest or weed control at 125 g/ha,"[6]; pre-emergence, Preemergence",100%
same,pest or weed control at 500 g/ha,"[6]; pre-emergence, Preemergence",100%
same,pest or weed control at 125 g/ha,"[7]; post-emergence, Postemergence",100%
same,pest or weed control at 500 g/ha,"[7]; post-emergence, Postemergence",100%
same,pest or weed control at 125 g/ha,"[7]; pre-emergence, Preemergence",100%
same,pest or weed control at 500 g/ha,"[7]; pre-emergence, Preemergence",100%
same,plant injury at 125 g/ha,"[8]; post-emergence, Postemergence",60%
same,plant injury at 500 g/ha,"[8]; post-emergence, Postemergence",70%
same,plant injury at 125 g/ha,"[8]; pre-emergence, Preemergence",20%
same,plant injury at 500 g/ha,"[8]; pre-emergence, Preemergence",50%
same,pest or weed control at 125 g/ha,"[9]; post-emergence, Postemergence",90%
same,pest or weed control at 500 g/ha,"[9]; post-emergence, Postemergence",90%
same,pest or weed control at 125 g/ha,"[9]; pre-emergence, Preemergence",100%
same,pest or weed control at 500 g/ha,"[9]; pre-emergence, Preemergence",100%
"CCOc1cc(=O)n(-c2ccc(F)cc2)nc1Cc1ccnc(C(F)(F)F)c1 [Compound 25, 5-ethoxy-2-(4-fluorophenyl)-6-[[2-(trifluoromethyl)-4-pyridinyl]methyl]-3 (2H)-pyridazinone]",Plant response rating: Goosegrass,[1]; 8 g ai/ha,5
same,Plant response rating: Goosegrass,[1]; 16 g ai/ha,5
same,Plant response rating: Goosegrass,[1]; 31 g ai/ha,15
same,Plant response rating: Goosegrass,[1]; 62 g ai/ha,75
same,Plant response rating: Goosegrass,[1]; 125 g ai/ha,98
same,pest or weed control at 31 g/ha,"[2]; pre-emergence, Preemergence",60%
same,pest or weed control at 62 g/ha,"[2]; pre-emergence, Preemergence",85%
same,pest or weed control at 125 g/ha,"[2]; pre-emergence, Preemergence",65%
same,pest or weed control at 250 g/ha,"[2]; pre-emergence, Preemergence",95%
same,pest or weed control at 125 g/ha,"[3]; post-emergence, Postemergence",60%
same,pest or weed control at 500 g/ha,"[3]; post-emergence, Postemergence",100%
same,pest or weed control at 125 g/ha,"[3]; pre-emergence, Preemergence",40%
same,pest or weed control at 500 g/ha,"[3]; pre-emergence, Preemergence",100%
same,pest or weed control at 125 g/ha,"[4]; post-emergence, Postemergence",80%
same,pest or weed control at 500 g/ha,"[4]; post-emergence, Postemergence",90%
same,pest or weed control at 125 g/ha,"[4]; pre-emergence, Preemergence",90%
same,pest or weed control at 500 g/ha,"[4]; pre-emergence, Preemergence",100%
same,"Corn plant response rating (crop injury, 0 = no effect, 100 = complete kill) at 125 g/ha","corn (Zea mays); post-emergence, Postemergence",70%
same,"Corn plant response rating (crop injury, 0 = no effect, 100 = complete kill) at 500 g/ha","corn (Zea mays); post-emergence, Postemergence",80%
same,"Corn plant response rating (crop injury, 0 = no effect, 100 = complete kill) at 125 g/ha","corn (Zea mays); pre-emergence, Preemergence",50%
same,"Corn plant response rating (crop injury, 0 = no effect, 100 = complete kill) at 500 g/ha","corn (Zea mays); pre-emergence, Preemergence",50%
same,pest or weed control at 125 g/ha,"[5]; post-emergence, Postemergence",40%
same,pest or weed control at 500 g/ha,"[5]; post-emergence, Postemergence",90%
same,pest or weed control at 125 g/ha,"[5]; pre-emergence, Preemergence",30%
same,pest or weed control at 500 g/ha,"[5]; pre-emergence, Preemergence",90%
same,pest or weed control at 125 g/ha,"[6]; post-emergence, Postemergence",80%
same,pest or weed control at 500 g/ha,"[6]; post-emergence, Postemergence",90%
same,pest or weed control at 125 g/ha,"[6]; pre-emergence, Preemergence",100%
same,pest or weed control at 500 g/ha,"[6]; pre-emergence, Preemergence",100%
same,pest or weed control at 125 g/ha,"[7]; post-emergence, Postemergence",100%
same,pest or weed control at 500 g/ha,"[7]; post-emergence, Postemergence",100%
same,pest or weed control at 125 g/ha,"[7]; pre-emergence, Preemergence",100%
same,pest or weed control at 500 g/ha,"[7]; pre-emergence, Preemergence",100%
same,plant injury at 125 g/ha,"[8]; post-emergence, Postemergence",60%
same,plant injury at 500 g/ha,"[8]; post-emergence, Postemergence",70%
same,plant injury at 125 g/ha,"[8]; pre-emergence, Preemergence",30%
same,plant injury at 500 g/ha,"[8]; pre-emergence, Preemergence",60%
same,pest or weed control at 125 g/ha,"[9]; post-emergence, Postemergence",70%
same,pest or weed control at 500 g/ha,"[9]; post-emergence, Postemergence",90%
same,pest or weed control at 125 g/ha,"[9]; pre-emergence, Preemergence",100%
same,pest or weed control at 500 g/ha,"[9]; pre-emergence, Preemergence",100%
